{"source": "patent US4048299A", "about": "“Anticaries confectionaries and oral health products” (William Wrigley, Jr. Co., priority 1970, dated 1977)", "key": {"[1]": {"tested_on": "Streptococcus spp. KI-R", "assay": "Growth inhibition by aldehydes in product vehicles, pour-plate technique", "format": "cell-based", "conditions": "1 to 5 percent aldehyde", "how_it_was_run": "(§1)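 Aldehydes (1 to 5 percent by weight) were formulated into syrups, candies, mouthwash, toothpaste or toothpowder, added directly or as aqueous extracts to medium without a carbon source mixed 1:1 with filter-sterilized human saliva. Sugar came from the product or added sucrose. Growth over up to 24 hours was read by pour-plate count.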"}, "[2]": {"tested_on": "Mixed human oral microorganisms", "assay": "Growth inhibition by aldehydes in product vehicles, pour-plate technique", "format": "cell-based", "conditions": "1 to 5 percent aldehyde", "how_it_was_run": "as §1"}, "[3]": {"tested_on": "Lactobacillus casei ATCC 4646", "assay": "Growth inhibition by aldehydes in product vehicles, pour-plate technique", "format": "cell-based", "conditions": "1 to 5 percent aldehyde", "how_it_was_run": "as §1"}, "[4]": {"tested_on": "Streptococcus sp. FA-1", "assay": "Acid production inhibition, broth-tube technique", "conditions": "single agent", "source_text": "The data was compiled through well-known broth tube analysis techniques.\n(a)Measured by broth-tube technique."}, "[5]": {"assay": "In vivo caries evaluation, Osborne-Mendel strain 1 rat", "set-up": "species or system rat (Osborne-Mendel strain 1)", "conditions": "Table I, 90 days", "how_it_was_run": "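Rats of two Osborne-Mendel strains and albino hamsters were fed diets containing each aldehyde or polyaldehyde at 1 percent by weight for several weeks. Caries incidence was then scored by standard laboratory methods to assess caries reduction.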"}, "[6]": {"tested_on": "Streptococcus spp. KI-R", "assay": "Acid production inhibition by aldehydes in product vehicles, broth-tube technique", "format": "cell-based", "conditions": "1 to 5 percent aldehyde"}, "[7]": {"conditions": "in compressed candy tablet, 2 h incubation"}, "[8]": {"conditions": "in compressed candy tablet, 5 h incubation"}, "[9]": {"conditions": "in compressed candy tablet, 24 h incubation"}, "[10]": {"conditions": "in dextrose syrup, 2 h incubation"}, "[11]": {"conditions": "in dextrose syrup, 5 h incubation"}, "[12]": {"conditions": "in dextrose syrup, 24 h incubation"}, "[13]": {"conditions": "in sucrose syrup, 2 h incubation"}, "[14]": {"conditions": "in sucrose syrup, 5 h incubation"}, "[15]": {"conditions": "in sucrose syrup, 24 h incubation"}, "[16]": {"conditions": "in tooth powder (aqueous extract), 2 h incubation"}, "[17]": {"conditions": "in tooth powder (aqueous extract), 5 h incubation"}, "[18]": {"conditions": "in tooth powder (aqueous extract), 24 h incubation"}, "[19]": {"conditions": "in toothpaste (aqueous extract), 2 h incubation"}, "[20]": {"conditions": "in toothpaste (aqueous extract), 5 h incubation"}, "[21]": {"conditions": "in toothpaste (aqueous extract), 24 h incubation"}, "[22]": {"conditions": "Student's test, 95 percent confidence limit"}}}
{"smiles": "CC(=O)C=O", "note": "[Pyruvaldehyde]", "values": [{"measurement": "Growth Inhibition", "setting": "[1]; [7]", "result": "N.S."}, {"measurement": "Growth Inhibition", "setting": "[1]; [8]", "result": "N.S."}, {"measurement": "Growth Inhibition", "setting": "[1]; [9]", "result": "N.S."}, {"measurement": "Growth Inhibition", "setting": "[1]; [10]", "result": 100, "unit": "Per Cent"}, {"measurement": "Growth Inhibition", "setting": "[1]; [11]", "result": 100, "unit": "Per Cent"}, {"measurement": "Growth Inhibition", "setting": "[1]; [12]", "result": 100, "unit": "Per Cent"}, {"measurement": "Growth Inhibition", "setting": "[1]; in hard candy, 2 h incubation", "result": "> 99.99", "unit": "Per Cent"}, {"measurement": "Growth Inhibition", "setting": "[1]; in hard candy, 5 h incubation", "result": "> 99.99", "unit": "Per Cent"}, {"measurement": "Growth Inhibition", "setting": "[1]; in hard candy, 24 h incubation", "result": 100, "unit": "Per Cent"}, {"measurement": "Growth Inhibition", "setting": "[1]; in mouthwash, 2 h incubation", "result": "> 99.99", "unit": "Per cent"}, {"measurement": "Growth Inhibition", "setting": "[1]; in mouthwash, 5 h incubation", "result": "> 99.99", "unit": "Per cent"}, {"measurement": "Growth Inhibition", "setting": "[1]; in mouthwash, 24 h incubation", "result": 100, "unit": "Per cent"}, {"measurement": "Growth Inhibition", "setting": "[1]; [13]", "result": "> 99.9", "unit": "Per cent"}, {"measurement": "Growth Inhibition", "setting": "[1]; [14]", "result": "> 99.99", "unit": "Per cent"}, {"measurement": "Growth Inhibition", "setting": "[1]; [15]", "result": 100, "unit": "Per cent"}, {"measurement": "Growth Inhibition", "setting": "[1]; [16]", "result": 100, "unit": "Per cent"}, {"measurement": "Growth Inhibition", "setting": "[1]; [17]", "result": 100, "unit": "Per cent"}, {"measurement": "Growth Inhibition", "setting": "[1]; [18]", "result": 100, "unit": "Per cent"}, {"measurement": "Growth Inhibition", "setting": "[1]; [19]", "result": "N.S."}, {"measurement": "Growth Inhibition", "setting": "[1]; [20]", "result": "N.S."}, {"measurement": "Growth Inhibition", "setting": "[1]; [21]", "result": "N.S."}, {"measurement": "Growth Inhibition", "setting": "[2]; [7]", "result": 99.7, "unit": "Per Cent"}, {"measurement": "Growth Inhibition", "setting": "[2]; [8]", "result": 99.99, "unit": "Per Cent"}, {"measurement": "Growth Inhibition", "setting": "[2]; [9]", "result": 99.98, "unit": "Per Cent"}, {"measurement": "Growth Inhibition", "setting": "[2]; [10]", "result": 99.8, "unit": "Per Cent"}, {"measurement": "Growth Inhibition", "setting": "[2]; [11]", "result": 100, "unit": "Per Cent"}, {"measurement": "Growth Inhibition", "setting": "[2]; [12]", "result": 99.99, "unit": "Per Cent"}, {"measurement": "Growth Inhibition", "setting": "[2]; in hard candy, 2 h incubation", "result": 99.5, "unit": "Per Cent"}, {"measurement": "Growth Inhibition", "setting": "[2]; in hard candy, 5 h incubation", "result": 100, "unit": "Per Cent"}, {"measurement": "Growth Inhibition", "setting": "[2]; in hard candy, 24 h incubation", "result": "N.S."}, {"measurement": "Growth Inhibition", "setting": "[2]; in mouthwash, 2 h incubation", "result": 99.0, "unit": "Per cent"}, {"measurement": "Growth Inhibition", "setting": "[2]; in mouthwash, 5 h incubation", "result": 100, "unit": "Per cent"}, {"measurement": "Growth Inhibition", "setting": "[2]; in mouthwash, 24 h incubation", "result": 99.7, "unit": "Per cent"}, {"measurement": "Growth Inhibition", "setting": "[2]; [13]", "result": "> 99.9", "unit": "Per cent"}, {"measurement": "Growth Inhibition", "setting": "[2]; [14]", "result": "> 99.99", "unit": "Per cent"}, {"measurement": "Growth Inhibition", "setting": "[2]; [15]", "result": "N.S."}, {"measurement": "Growth Inhibition", "setting": "[2]; [16]", "result": "N.S."}, {"measurement": "Growth Inhibition", "setting": "[2]; [17]", "result": 99.99, "unit": "Per cent"}, {"measurement": "Growth Inhibition", "setting": "[2]; [18]", "result": 99.94, "unit": "Per cent"}, {"measurement": "Growth Inhibition", "setting": "[2]; [19]", "result": 100, "unit": "Per cent"}, {"measurement": "Growth Inhibition", "setting": "[2]; [20]", "result": "N.S."}, {"measurement": "Growth Inhibition", "setting": "[2]; [21]", "result": 100, "unit": "Per cent"}, {"measurement": "Growth Inhibition", "setting": "[3]; [7]", "result": 99.5, "unit": "Per Cent"}, {"measurement": "Growth Inhibition", "setting": "[3]; [8]", "result": 100, "unit": "Per Cent"}, {"measurement": "Growth Inhibition", "setting": "[3]; [9]", "result": 100, "unit": "Per Cent"}, {"measurement": "Growth Inhibition", "setting": "[3]; [10]", "result": 99.4, "unit": "Per Cent"}, {"measurement": "Growth Inhibition", "setting": "[3]; [11]", "result": 99.99, "unit": "Per Cent"}, {"measurement": "Growth Inhibition", "setting": "[3]; [12]", "result": 100, "unit": "Per Cent"}, {"measurement": "Growth Inhibition", "setting": "[3]; in hard candy, 2 h incubation", "result": 92, "unit": "Per Cent"}, {"measurement": "Growth Inhibition", "setting": "[3]; in hard candy, 5 h incubation", "result": 99.85, "unit": "Per Cent"}, {"measurement": "Growth Inhibition", "setting": "[3]; in hard candy, 24 h incubation", "result": 100, "unit": "Per Cent"}, {"measurement": "Growth Inhibition", "setting": "[3]; [13]", "result": 97.5, "unit": "Per cent"}, {"measurement": "Growth Inhibition", "setting": "[3]; [14]", "result": "> 99.99", "unit": "Per cent"}, {"measurement": "Growth Inhibition", "setting": "[3]; [15]", "result": "> 99.99", "unit": "Per cent"}, {"measurement": "Growth Inhibition", "setting": "[3]; [16]", "result": "N.S."}, {"measurement": "Growth Inhibition", "setting": "[3]; [17]", "result": 98, "unit": "Per cent"}, {"measurement": "Growth Inhibition", "setting": "[3]; [18]", "result": 100, "unit": "Per cent"}, {"measurement": "Growth Inhibition", "setting": "[3]; [19]", "result": "N.S."}, {"measurement": "Growth Inhibition", "setting": "[3]; [20]", "result": "N.S."}, {"measurement": "Growth Inhibition", "setting": "[3]; [21]", "result": 100, "unit": "Per cent"}, {"measurement": "Acid Production Inhibition", "setting": "[4]; 0.001 percent", "result": 10, "unit": "%"}, {"measurement": "Acid Production Inhibition", "setting": "[4]; 0.002 percent", "result": 35, "unit": "%"}, {"measurement": "Caries Score, Mean Incidence", "setting": "[5]; 1 percent in diet, RCD control 23.3 (pyruvaldehyde test), 12.85 (glycolaldehyde test)", "result": 8.6}, {"measurement": "Caries Score, Mean Extent", "setting": "[5]; 1 percent in diet, RCD control 64.8 (pyruvaldehyde test), 35.45 (glycolaldehyde test)", "result": 21.7}, {"measurement": "Caries Extent Reduction, statistical evaluation", "setting": "[5]; [22]", "result": "Significant"}, {"measurement": "Caries Incidence Reduction, statistical evaluation", "setting": "[5]; [22]", "result": "Significant"}, {"measurement": "Acid Production Inhibition", "setting": "[6]; [7]", "result": 0, "unit": "Per Cent"}, {"measurement": "Acid Production Inhibition", "setting": "[6]; [8]", "result": 30, "unit": "Per Cent"}, {"measurement": "Acid Production Inhibition", "setting": "[6]; [9]", "result": 83, "unit": "Per Cent"}, {"measurement": "Acid Production Inhibition", "setting": "[6]; [10]", "result": 57, "unit": "Per Cent"}, {"measurement": "Acid Production Inhibition", "setting": "[6]; [11]", "result": 86, "unit": "Per Cent"}, {"measurement": "Acid Production Inhibition", "setting": "[6]; [12]", "result": 82, "unit": "Per Cent"}, {"measurement": "Acid Production Inhibition", "setting": "[6]; in hard candy, 2 h incubation", "result": 40, "unit": "Per Cent"}, {"measurement": "Acid Production Inhibition", "setting": "[6]; in hard candy, 5 h incubation", "result": 87, "unit": "Per Cent"}, {"measurement": "Acid Production Inhibition", "setting": "[6]; in hard candy, 24 h incubation", "result": 86, "unit": "Per Cent"}, {"measurement": "Acid Production Inhibition", "setting": "[6]; in mouthwash, 2 h incubation", "result": 0, "unit": "Per cent"}, {"measurement": "Acid Production Inhibition", "setting": "[6]; in mouthwash, 5 h incubation", "result": 0, "unit": "Per cent"}, {"measurement": "Acid Production Inhibition", "setting": "[6]; in mouthwash, 24 h incubation", "result": 86, "unit": "Per cent"}, {"measurement": "Acid Production Inhibition", "setting": "[6]; [13]", "result": 37.5, "unit": "Per cent"}, {"measurement": "Acid Production Inhibition", "setting": "[6]; [14]", "result": 82.3, "unit": "Per cent"}, {"measurement": "Acid Production Inhibition", "setting": "[6]; [15]", "result": 86.4, "unit": "Per cent"}, {"measurement": "Acid Production Inhibition", "setting": "[6]; [16]", "result": 0, "unit": "Per cent"}, {"measurement": "Acid Production Inhibition", "setting": "[6]; [17]", "result": 0, "unit": "Per cent"}, {"measurement": "Acid Production Inhibition", "setting": "[6]; [18]", "result": 0, "unit": "Per cent"}, {"measurement": "Acid Production Inhibition", "setting": "[6]; [19]", "result": 0, "unit": "Per cent"}, {"measurement": "Acid Production Inhibition", "setting": "[6]; [20]", "result": 0, "unit": "Per cent"}, {"measurement": "Acid Production Inhibition", "setting": "[6]; [21]", "result": 0, "unit": "Per cent"}]}
